# Experiments:
# [1] = test system: Lewis lung cancer; experiment: MTT cytotoxicity, Lewis lung cancer; format: cell-based; conditions: n = 6, Lewis lung cancer
# Protocol: (§1) Several kinds of tumor cells in exponential growth phase were prepared into single cell suspension, inoculated on 96 pore plat at the density of 4×10^4/hole, cultivated for 24 hours to enable to adhere to wall with 1640 culture medium containing 10% fetal calf serum (complete medium) at 37° C.; the final culture volume was 100 μl. Cell morphology was observed after culture for 24 hours.
# [2] = test system: normal mice; experiment: Acute toxic effect of platinum complex on normal mice (LD50, single intravenous administration); format: in vivo, Kunming mice; conditions: single intravenous administration in 5% glucose solution, 14 days observation, Bliss method
# Protocol: (§2) Kunming mice at 4˜6 weeks old and at the weight of 18˜22 g were taken, 50% male and 50% female. Embodiment platinum compound was dissolved with 5% glucose solution. […] Mortality and toxicity were observed after administration, totally observing 14 days, LD50 value was calculated with Bliss method according to mortality.
# [3] = test system: Colon cancer SW480; experiment: MTT cytotoxicity, colon cancer SW480; format: cell-based; conditions: n = 6, Colon cancer SW480
# Protocol: as §1
# [4] = test system: breast cancer MCF-7; experiment: In vivo antitumor activity, breast cancer MCF-7 in nude mice; conditions: MCF-7 in female nude mice, 10 mg (platinum)/kg, once a week, 4 times, tumor weighed 4 weeks later
# [5] = test system: Pulmonary epithelial cell BEAS-2B; experiment: MTT cytotoxicity, pulmonary epithelial cell BEAS-2B; format: cell-based; conditions: n = 6, Pulmonary epithelial cell BEAS-2B
# Protocol: as §1
# [6] = test system: Lung cancer H292; experiment: MTT cytotoxicity, lung cancer H292; format: cell-based; conditions: n = 6, Lung cancer H292
# Protocol: as §1
# [7] = Solubility in water of the embodiment and contrast compounds
# [8] = test system: Esophagus cancer ECA109; experiment: MTT cytotoxicity, esophagus cancer ECA109; format: cell-based; conditions: n = 6, Esophagus cancer ECA109
# Protocol: as §1
# [9] = test system: Gastric cancer MGC803; experiment: MTT cytotoxicity, gastric cancer MGC803; format: cell-based; conditions: n = 6, Gastric cancer MGC803
# Protocol: as §1
# [10] = test system: Testis cell ST; experiment: MTT cytotoxicity, testis cell ST; format: cell-based; conditions: n = 6, Testis cell ST
# Protocol: as §1
# [11] = Acute toxic effect of platinum complex on normal mice (LD50, single intravenous administration); format: in vivo, Kunming mice; conditions: both sexes, Kunming, mouse, in vivo; single intravenous administration in 5% glucose solution, 14 days observation, Bliss method
# Protocol: as §2
# [12] = physchem; conditions: water
Compound,IC50 [1],LD50 value [2],IC50 [3],Tumor inhibition rate (x ± SD) [4],IC50 [5],IC50 [6],solubility [7],IC50 [8],IC50 [9],IC50 [10],LD50 at 14 days [11],solubility [12]
"CCCN(CCC)CCCC(CC(=O)[O-])C(=O)[O-].N[C@@H]1CCCC[C@H]1N.[Pt+2] (stereo not drawn) [Compound 14, [2-(3-di-n-propylamino propyl)-succinato].[Cis-(1,2-trans-cyclohexyldiamine)]platinum (II)]",37 µM,0.467 mmol/kg,51 µM,70.1 ± 11.55 9%,8 µM,9 µM,,,,,,
"CCN(CC)CCC(CC(=O)[O-])C(=O)[O-].NC1CCC(N)CC1.[Pt+2] (stereo not drawn) [Compound 25, [2-(2-diethylaminoethyl)-succinato].[Cis-1,4-cyclohexyldiamine]platinum (II)]",,0.459 mmol/kg,,66.9 ± 9.49 9%,,106 µM,125 mg/mL,116 µM,96 µM,102 µM,,
"CCN(CC)CCCC(CC(=O)[O-])C(=O)[O-].NC1CCCC1N.[Pt+2] (racemic) [Compound 15, [2-(3-diethylamino propyl)-succinato].[Cis-(1,2-trans-cyclopentyldiamine)]platinum (II)]",51 µM,0.528 mmol/kg,32 µM,73.5 ± 12.31 9%,15 µM,145 µM,151 mg/mL,,,,,
"CCN(CC)CCCCC(CC(=O)[O-])C(=O)[O-].NCCN.[Pt+2] (stereo not drawn) [Compound 28, [2-(4-diethylamino butyl)-succinato].[Cis-1,2-ethylenediamine]platinum (II) toluenesulfonate]",,0.612 mmol/kg,,76.4 ± 9.78 9%,,99 µM,187 mg/mL,56 µM,162 µM,138 µM,,
"CCN(CC)CCC1CC(=O)[O][Pt]2([NH]CCC[NH]2)[O]C1=O (stereo not drawn) [Compound 19, [2-(2-diethylaminoethyl)-succinato].[Cis-1,3-propyldiamine]platinum (II)]",,0.454 mmol/kg,,65.3 ± 9.15 9%,,102 µM,200 mg/mL,8 µM,117 µM,12 µM,,
"CCN(CC)CCCCC1CC(=O)[O][Pt]2([NH]C3CCCCC3[NH]2)[O]C1=O.O=P(O)(O)O (stereo not drawn) [Compound 29, [2-(4-diethylamino butyl)-succinato].[Cis-(1,2-trans-cyclohexyldiamine)]platinum (II) phosphate]",,0.698 mmol/kg,,82.2 ± 10.82 9%,,3 µM,,6 µM,7 µM,5 µM,,
"CN(C)CCC(CC(=O)[O-])C(=O)[O-].NCCN.[Pt+2] (stereo not drawn) [Compound 18, [2-(2-dimethylaminoethyl)-succinato].[Cis-1,2-ethyldiamine]platinum (II)]",,0.532 mmol/kg,,71.8 ± 12.01 9%,,31 µM,226 mg/mL,62 µM,121 µM,10 µM,,
"CCN(CC)CCC1CC(=O)[O][Pt]2([NH]CC3(CCOCC3)C[NH]2)[O]C1=O (stereo not drawn) [Compound 26, [2-(2-diethylaminoethyl)-succinato].[Cis-1,3-(2,2-(4-oxacyclohexyl))-propyldiamine]platinum (II)]",,0.526 mmol/kg,,76.4 ± 14.85 9%,,47 µM,165 mg/mL,32 µM,35 µM,44 µM,,
"CCN(CC)CCC1CC(=O)[O][Pt]2([NH]C(CO)C(CO)[NH]2)[O]C1=O (stereo not drawn) [Compound 21, [2-(2-diethyl amino ethyl)-succinato].[Cis-1,2-(1,2-dihydroxymethyl)-ethyldiamine]platinum (II)]",,0.681 mmol/kg,,68.3 ± 10.88 9%,,21 µM,176 mg/mL,84 µM,109 µM,143 µM,,
"CCCN(CCC)CCCC(CC(=O)[O-])C(=O)[O-].NCCCCN.[Pt+2] (stereo not drawn) [Compound 20, [2-(3-di-n-propylaminopropyl)-succinato].[Cis-1,4-butyldiamine]platinum (II)]",,0.513 mmol/kg,,66.7 ± 10.61 9%,,59 µM,162 mg/mL,13 µM,66 µM,22 µM,,
"CCN(CC)CCCCC1CC(=O)[O][Pt]([NH2])([NH2])[O]C1=O (stereo not drawn) [Compound 27, [2-(4-diethylamino butyl)-succinato].[Cis-diamine]platinum (II) acetate]",,,,,,,,,,,557 µmol/kg,143 mg/mL
"CN(C)CCC1CC(=O)[O][Pt]2([NH]CC(CO)(CO)C[NH]2)[O]C1=O (stereo not drawn) [Compound 22, [2-(2-dimethyl amino ethyl)-succinato].[Cis-1,3-(2,2-dihydroxytmethyl)-propyldiamine]platinum (II)]",,0.452 mmol/kg,,70.8 ± 10.12 9%,,65 µM,205 mg/mL,17 µM,15 µM,52 µM,,
"[NH2][Pt]1([NH2])[O]C(=O)CC(CCCN2CCCCC2)C(=O)[O]1 (stereo not drawn) [Compound 7, [2-(3-(1-piperidyl)-propyl)-succinato].[Cis-diamine]platinum (II)]",,,,,,,,,,,623 µmol/kg,139 mg/mL
"CN(C)CCC(CC(=O)[O-])C(=O)[O-].NCC1CCC1CN.[Pt+2] (racemic) [Compound 23, [2-(2-dimethylaminoethyl)-succinato].[Cis-1,4-(trans-2,3-cyclobutyl)-butyldiamine]platinum (II)]",,0.512 mmol/kg,,85.1 ± 10.37 9%,,51 µM,165 mg/mL,102 µM,146 µM,18 µM,,
"CCN(CC)CCCC(CC(=O)[O-])C(=O)[O-].NC1CC1N.[Pt+2] (racemic) [Compound 17, [2-(3-diethylamino propyl)-succinato].[Cis-(1,2-trans-cyclopropyldiamine)]platinum (II)]",,0.581 mmol/kg,,82.5 ± 11.34 9%,,31 µM,195 mg/mL,72 µM,13 µM,51 µM,,
"CCN(CC)CCC(CC(=O)[O-])C(=O)[O-].NCC1CCC1CN.[Pt+2] (racemic) [Compound 24, [2-(2-diethylamino ethyl)-succinato].[Cis-1,4-(trans-2,3-cyclobutyl)-butanediamine]platinum (II)]",,0.525 mmol/kg,,69.3 ± 10.13 9%,,25 µM,176 mg/mL,71 µM,119 µM,12 µM,,
"CCN(CC)CCCC1CC(=O)[O][Pt]2([NH]C3CCC3[NH]2)[O]C1=O (stereo not drawn) [Compound 16, [2-(3-diethylamino propyl)-succinato].[Cis-(1,2-trans-cyclobutyldiamine)]platinum (II)]",33 µM,0.623 mmol/kg,84 µM,70.4 ± 10.81 9%,45 µM,8 µM,186 mg/mL,,,,,

# Reference: patent US9175024B2, “Platinum compound having amino or alkylamino-containing succinic acid derivatives as leaving group, preparation method thereof, and use thereof” (BEIJING FSWELCOME TECHNOLOGY DEVELOPMENT CO., LTD., priority 2011, dated 2015)
